B1: PDE8A1 (Homo sapiens) (protein)
chain: SLDDVPPRIARAMENEEYWDFDIFELEAATHNRPLIYLGLKMFARFGICEFLHCSESTLRSWLQIIEANYHSSNPYHNSTHSADVLHATAYFLSKERIKETLDPIDEVAALIAATIHDVDHPGRTNSFLCNAGSELAILYNDTAVLESHHAALAFQLTTGDDKCNIFKNMERNDYRTLRQGIIDMVLATEMTKHFEHVNKFVNSINKPLATLEENGETDKNQEVINTMLRTPENRTLIKRMLIKCADVSNPCRPLQYCIEWAARISEEYFSQTDEEKQQGLPVVMPVFDRNTCSIPKSQISFIDYFITDMFDAWDAFVDLPDLMQHLDNNFKYWKGLDEMK

Columns and labels:
PDE8A1 [1] = target: PDE8A1 (Homo sapiens, UniProt O60658); experiment: 3H-cAMP hydrolysis assay, IC50; format: biochemical
PDE8A1 [2] = target: PDE8A1 (Homo sapiens, UniProt O60658, Y748F); experiment: 3H-cAMP hydrolysis assay, IC50; format: biochemical
Sequence of PDE8A1 (Homo sapiens, UniProt O60658, Y748F) (O60658 480-820 Y748F): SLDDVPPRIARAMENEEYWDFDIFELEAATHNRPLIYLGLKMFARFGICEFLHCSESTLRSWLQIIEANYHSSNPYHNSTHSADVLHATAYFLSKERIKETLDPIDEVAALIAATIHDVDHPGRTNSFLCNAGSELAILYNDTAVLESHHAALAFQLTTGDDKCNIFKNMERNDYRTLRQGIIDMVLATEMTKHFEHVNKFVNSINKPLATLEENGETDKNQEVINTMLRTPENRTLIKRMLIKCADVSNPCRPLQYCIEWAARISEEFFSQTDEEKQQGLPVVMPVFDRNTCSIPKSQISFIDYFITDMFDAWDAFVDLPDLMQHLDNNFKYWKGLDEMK

purified protein = substrate: [H][C@@]12COP(=O)(O)O[C@@]1([H])[C@@H](O)[C@H](n1cnc3c(=O)[nH]c(N)nc31)O2; experiment: purified protein; conditions: Mn2+ ([…] MnCl2)

| Molecule | IC50 (PDE8A1 [1]) | IC50 (PDE8A1 [2]) | Km (purified protein) |
| --- | --- | --- | --- |
| OCCN(CCO)c1nc(N2CCCCC2)c2nc(N(CCO)CCO)nc(N3CCCCC3)c2n1 [dipyridamole] | 6 ± 0.4 µM | 4.1 ± 0.4 µM |  |
| B1 |  |  | 1600 ± 100 µM |
